Assay results from ChEMBL document CHEMBL4270535, “Facile synthesis of vanillin-based novel bischalcones identifies one that induces apoptosis and displays synergy with Artemisinin in killing chloroquine resistant Plasmodium falciparum” (Eur J Med Chem, 2018).
Calls of active or inactive are those of the source. No cut-off for these calls is given here.

What was measured:
Plasmodium falciparum [1] = test: Antiplasmodial activity against synchronized ring stage of chloroquine-resistant Plasmodium falciparum INDO infected in human erythrocytes after 48 hrs by SYBR Green 1 dye based fluorescence assay; type: functional, organism-based
[2] = Selectivity index, ratio of IC50 for mouse L929 cells to IC50 for synchronized ring stage of chloroquine-sensitive Plasmodium falciparum 3D7 infected in human erythrocytes; type: toxicity, cell-based; conditions: read-out: Ratio IC50
Plasmodium falciparum [3] = test: Antiplasmodial activity against synchronized ring stage of chloroquine-sensitive Plasmodium falciparum 3D7 infected in human erythrocytes after 48 hrs by SYBR Green 1 dye based fluorescence assay; type: functional, organism-based; conditions: 3D7, 48 h
Plasmodium falciparum [4] = test: Antiplasmodial activity against synchronized ring stage of chloroquine-resistant Plasmodium falciparum Dd2 infected in human erythrocytes after 48 hrs by SYBR Green 1 dye based fluorescence assay; type: functional, organism-based; conditions: Dd2, 48 h
[5] = Resistance index, ratio of IC50 for synchronized ring stage of chloroquine-resistant Plasmodium falciparum Dd2 infected in human erythrocytes to IC50 for synchronized ring stage of chloroquine-sensitive Plasmodium falciparum 3D7 infected in human erythrocytes; type: functional
[6] = Resistance index, ratio of IC50 for synchronized ring stage of chloroquine-resistant Plasmodium falciparum INDO infected in human erythrocytes to IC50 for synchronized ring stage of chloroquine-sensitive Plasmodium falciparum 3D7 infected in human erythrocytes; type: functional
[7] = Selectivity index, ratio of IC50 for human HeLa cells to IC50 for synchronized ring stage of chloroquine-sensitive Plasmodium falciparum 3D7 infected in human erythrocytes; type: toxicity, cell-based; conditions: read-out: Ratio IC50
Plasmodium falciparum [8] = test: (§1) Induction of apoptosis in synchronized trophozoite stage of chloroquine-resistant Plasmodium falciparum INDO infected in human erythrocytes assessed as translocation of phosphatidylserine from inner to outer leaflet of plasma membrane at 8 uM after 12 hrs by Annexin-V/Alexa fluor-488 staining based flow cytometry; type: functional, organism-based
Plasmodium falciparum [9] = test: (§2) Synergistic plasmodicidal activity against synchronized ring stage of chloroquine-resistant Plasmodium falciparum INDO infected in human erythrocytes assessed as parasite killing at FIC90 treated for 6 to 48 hrs followed by compound wash out measured after 48 to 90 hrs followed by compound wash out measured after 48 to 90 hrs in presence of artemisinin by Giemsa staining based microscopic analysis; type: functional, organism-based
Plasmodium falciparum [10] = test: Induction of apoptosis in synchronized trophozoite stage of chloroquine-resistant Plasmodium falciparum INDO infected in human erythrocytes assessed as activation of caspase-like protease at 8 uM after 12 hrs by Caspase FITC-VAD-FMK substrate based flow cytometry; type: functional, organism-based
Plasmodium falciparum [11] = test: as §2, with “antiplasmodial” for “plasmodicidal”, “growth inhibition” for “killing”, “hrs” for “hrs followed by compound wash out measured after 48 to 90 hrs”, “chloroquine” for “artemisinin”; type: functional, organism-based
Plasmodium falciparum [12] = test: (§3) Plasmodicidal activity against synchronized trophozoite stage of chloroquine-resistant Plasmodium falciparum INDO infected in human erythrocytes assessed as parasite killing at 8 uM treated for 18 to 24 hrs followed by compound wash out measured after 48 to 54 hrs by Giemsa staining based microscopic analysis; type: functional, organism-based
Plasmodium falciparum [13] = test: Synergistic antiplasmodial activity against synchronized ring stage of chloroquine-resistant Plasmodium falciparum INDO infected in human erythrocytes assessed as FIC index in presence of artemisinin; type: functional
Plasmodium falciparum [14] = test: Induction of apoptosis in synchronized trophozoite stage of chloroquine-resistant Plasmodium falciparum INDO infected in human erythrocytes assessed as chromatin fragmentation at 8 uM after 24 hrs by agarose gel electrophoresis method; type: functional, organism-based
Plasmodium falciparum [15] = test: as §2, with “antiplasmodial” for “plasmodicidal”, “growth inhibition” for “killing”, “48” for “48 hrs followed by compound wash out measured after 48 to 90”; type: functional, organism-based
Plasmodium falciparum [16] = test: as §2, with “2 times FIC100” for “FIC90”; type: functional, organism-based
Plasmodium falciparum [17] = test: Induction of apoptosis in synchronized trophozoite stage of chloroquine-resistant Plasmodium falciparum INDO infected in human erythrocytes assessed as parasite killing at 8 uM up to 24 hrs by Giemsa staining based microscopic analysis; type: functional, organism-based
Plasmodium falciparum [18] = test: (§4) Synergistic antiplasmodial activity against synchronized ring stage of chloroquine-resistant Plasmodium falciparum INDO infected in human erythrocytes assessed as parasite growth inhibition at 2 times FIC100 treated for 6 to 48 hrs followed by compound wash out measured after 48 to 90 hrs in presence of chloroquine by Giemsa staining based microscopic analysis; type: functional, organism-based
Plasmodium falciparum [19] = test: as §3, with “ring” for “trophozoite”, “6” for “18”, “48” for “24”, “90” for “54”; type: functional, organism-based
Plasmodium falciparum [20] = test: (§5) Synergistic antiplasmodial activity against synchronized trophozoite stage of chloroquine-resistant Plasmodium falciparum INDO infected in human erythrocytes assessed as parasite growth inhibition at FIC90 treated for 18 to 24 hrs followed by compound wash out measured after 48 to 54 hrs in presence of artemisinin by Giemsa staining based microscopic analysis; type: functional, organism-based
Plasmodium falciparum [21] = test: Antiplasmodial activity against synchronized ring stage of chloroquine-resistant Plasmodium falciparum INDO infected in human erythrocytes assessed as parasite growth inhibition at 8 uM treated for 6 to 48 hrs by Giemsa staining based microscopic analysis; type: functional, organism-based
Plasmodium falciparum [22] = test: as §5, with “plasmodicidal” for “antiplasmodial”, “killing” for “growth inhibition”, “24 hrs followed by compound wash out measured after 48 to 54” for “24”; type: functional, organism-based
Plasmodium falciparum [23] = test: as §5, with “schizont” for “trophozoite”, “12” for “18 to 24”, “48” for “48 to 54”, “chloroquine” for “artemisinin”; type: functional, organism-based
Plasmodium falciparum [24] = test: Plasmodicidal activity against synchronized schizont stage of chloroquine-resistant Plasmodium falciparum INDO infected in human erythrocytes assessed as parasite killing at 8 uM treated for 12 hrs followed by compound wash out measured after 48 hrs by Giemsa staining based microscopic analysis; type: functional, organism-based
Plasmodium falciparum [25] = test: as §2, with “chloroquine” for “artemisinin”; type: functional, organism-based
Plasmodium falciparum [26] = test: Synergistic antiplasmodial activity against synchronized ring stage of chloroquine-sensitive Plasmodium falciparum 3D7 infected in human erythrocytes assessed as ratio of IC50 in absence of artemisinin to IC50 in presence of artemisinin; type: functional
Plasmodium falciparum [27] = test: as §5, with “2 times FIC100” for “FIC90”, “chloroquine” for “artemisinin”; type: functional, organism-based
Plasmodium falciparum [28] = test: Induction of apoptosis in synchronized trophozoite stage of chloroquine-resistant Plasmodium falciparum INDO infected in human erythrocytes assessed as chromatin fragmentation at 8 uM by Hoechst 33342 staining based fluorescence microscopic analysis; type: functional, organism-based; conditions: TDE = time-dependent effect
Plasmodium falciparum [29] = test: Antiplasmodial activity against synchronized schizont stage of chloroquine-resistant Plasmodium falciparum INDO infected in human erythrocytes assessed as parasite growth inhibition at 8 uM treated for 12 hrs by Giemsa staining based microscopic analysis; type: functional, organism-based
Plasmodium falciparum [30] = test: Synergistic antiplasmodial activity against synchronized ring stage of chloroquine-resistant Plasmodium falciparum INDO infected in human erythrocytes assessed as FIC index in presence of chloroquine; type: functional
Plasmodium falciparum [31] = test: (§6) Synergistic plasmodicidal activity against synchronized trophozoite stage of chloroquine-resistant Plasmodium falciparum INDO infected in human erythrocytes assessed as parasite killing at FIC90 treated for 18 to 24 hrs followed by compound wash out measured after 48 to 54 hrs followed by compound wash out measured after 48 to 54 hrs in presence of chloroquine by Giemsa staining based microscopic analysis; type: functional, organism-based
Plasmodium falciparum [32] = test: as §2, with “schizont” for “ring”, “2 times FIC100” for “FIC90”, “12” for “6 to 48”, “48” for “48 to 90 hrs followed by compound wash out measured after 48 to 90”; type: functional, organism-based
Plasmodium falciparum [33] = test: as §5, with “chloroquine” for “artemisinin”; type: functional, organism-based
Plasmodium falciparum [34] = test: Synergistic antiplasmodial activity against synchronized ring stage of chloroquine-sensitive Plasmodium falciparum 3D7 infected in human erythrocytes assessed as FIC index in presence of chloroquine; type: functional
Plasmodium falciparum [35] = test: as §5, with “schizont” for “trophozoite”, “12” for “18 to 24”, “48” for “48 to 54”; type: functional, organism-based
Plasmodium falciparum [36] = test: as §4, with “schizont” for “ring”, “12” for “6 to 48”, “48” for “48 to 90”; type: functional, organism-based
Plasmodium falciparum [37] = test: as §6, with “killing at 2 times FIC100 treated for” for “killing at FIC90 treated for”, “presence of artemisinin by Giemsa” for “presence of chloroquine by Giemsa”; type: functional, organism-based
Plasmodium falciparum [38] = test: as §1, with “fluorescence microscopic analysis” for “flow cytometry”; type: functional, organism-based
Plasmodium falciparum [39] = test: Synergistic antiplasmodial activity against synchronized ring stage of chloroquine-sensitive Plasmodium falciparum 3D7 infected in human erythrocytes assessed as FIC index in presence of artemisinin; type: functional
Plasmodium falciparum [40] = test: Antiplasmodial activity against synchronized trophozoite stage of chloroquine-resistant Plasmodium falciparum INDO infected in human erythrocytes assessed as parasite growth inhibition at 8 uM treated for 18 to 24 hrs by Giemsa staining based microscopic analysis; type: functional, organism-based
Plasmodium falciparum [41] = test: Induction of mitochondrial membrane potential loss in synchronized trophozoite stage of chloroquine-resistant Plasmodium falciparum INDO infected in human erythrocytes at 8 uM after 18 to 24 hrs by fluorescence microscopic analysis; type: functional, organism-based
Plasmodium falciparum [42] = test: Induction of apoptosis in synchronized trophozoite stage of chloroquine-resistant Plasmodium falciparum INDO infected in human erythrocytes assessed as activation of caspase-like protease at 8 uM after 12 hrs by Caspase FITC-VAD-FMK substrate based fluorescence microscopic analysis; type: functional, organism-based

Compound `C=CCOc1c(OC)cc(/C=C/C(=O)c2ccc([N+](=O)[O-])cc2)cc1-c1cc(/C=C/C(=O)c2ccc([N+](=O)[O-])cc2)cc(OC)c1OCC=C` has an IC50 (Plasmodium falciparum [1]) of 5 µM, a selectivity ratio [2] of 3.2 and an IC50 (Plasmodium falciparum [3]) of 25 µM. For the same compound, the IC50 (Plasmodium falciparum [4]) was 9.3 µM, the “Ratio IC50” value [5] was 0.37 and the “Ratio IC50” value [6] was 0.2. For the same compound, the selectivity ratio [7] was greater than 4.

With `C=CCOc1c(OC)cc(/C=C/C(=O)c2ccc(Br)cc2)cc1-c1cc(/C=C/C(=O)c2ccc(Br)cc2)cc(OC)c1OCC=C` the IC50 (Plasmodium falciparum [3]) was greater than 50 µM.

Compound `C=CCOc1ccc(/C=C/C(=O)c2cccc(C(=O)/C=C/c3ccc(OCC=C)c(OCC=C)c3)c2)cc1OCC=C` has an IC50 (Plasmodium falciparum [1]) of 13.7 µM, a selectivity ratio [2] greater than 5.6 and an IC50 (Plasmodium falciparum [3]) of 18 µM. For the same compound, the IC50 (Plasmodium falciparum [4]) was 18.9 µM, the “Ratio IC50” value [5] was 1.05 and the “Ratio IC50” value [6] was 0.76. The selectivity ratio [7] was greater than 5.6.

`C=CCOc1ccc(/C=C/C(=O)c2cccc(C(=O)/C=C/c3ccc(OCC=C)c(OC)c3)c2)cc1OC` gave an IC50 (Plasmodium falciparum [3]) greater than 50 µM.

Compound `C=CCOc1c(OC)cc(/C=C/C(=O)c2ccc(OC)cc2)cc1-c1cc(/C=C/C(=O)c2ccc(OC)cc2)cc(OC)c1OCC=C` has an IC50 (Plasmodium falciparum [3]) of 57 µM.

For `C=CCc1cc(/C=C/C(=O)c2cccc(C(=O)/C=C/c3cc(CC=C)c(OC)c(OC)c3)c2)cc(OC)c1OC`, the Activity (Plasmodium falciparum [8]) was “Active”, the Activity (Plasmodium falciparum [9]) was “inactive” and the IC50 (Plasmodium falciparum [1]) was 3.8 µM. For the same compound, the Activity (Plasmodium falciparum [10]) was “Active”, the Activity (Plasmodium falciparum [11]) was “Active” and the Activity (Plasmodium falciparum [12]) was “Active”. For the same compound, the “fractional inhibitory concentration index (FICI)” value (Plasmodium falciparum [13]) was 0.46 - 0.58, the selectivity ratio [2] was 8.8 and the Activity (Plasmodium falciparum [14]) was “Active”. For the same compound, the IC50 (Plasmodium falciparum [3]) was 2.5 µM, the IC50 (Plasmodium falciparum [4]) was 3.5 µM and the Activity (Plasmodium falciparum [15]) was “Active”. For the same compound, the “Ratio IC50” value [5] was 1.4, the “Ratio IC50” value [6] was 1.5 and the Activity (Plasmodium falciparum [16]) was “Active”. For the same compound, the Activity (Plasmodium falciparum [17]) was “Active”, the Activity (Plasmodium falciparum [18]) was “Active” and the Activity (Plasmodium falciparum [19]) was “Active”. The Activity (Plasmodium falciparum [20]) was “Active”, the Activity (Plasmodium falciparum [21]) was “Active” and the selectivity ratio [7] was 11.2. For the same compound, the Activity (Plasmodium falciparum [22]) was “inactive”, the Activity (Plasmodium falciparum [23]) was “Active” and the Activity (Plasmodium falciparum [24]) was “Active”. The Activity (Plasmodium falciparum [25]) was “inactive”, the “Ratio IC50” value (Plasmodium falciparum [26]) was 20 - 311 and the Activity (Plasmodium falciparum [27]) was “Active”. The Activity (Plasmodium falciparum [28]) was “Tde”, the Activity (Plasmodium falciparum [29]) was “Active” and the “fractional inhibitory concentration index (FICI)” value (Plasmodium falciparum [30]) was 0.7 - 1.23. For the same compound, the Activity (Plasmodium falciparum [31]) was “inactive”, the Activity (Plasmodium falciparum [32]) was “inactive” and the Activity (Plasmodium falciparum [33]) was “Active”. The “fractional inhibitory concentration index (FICI)” value (Plasmodium falciparum [34]) was 1.38 - 3.34, the Activity (Plasmodium falciparum [35]) was “Active” and the Activity (Plasmodium falciparum [36]) was “Active”. The Activity (Plasmodium falciparum [37]) was “inactive”, the Activity (Plasmodium falciparum [38]) was “Active” and the “fractional inhibitory concentration index (FICI)” value (Plasmodium falciparum [39]) was 1.33 - 1.58. For the same compound, the Activity (Plasmodium falciparum [40]) was “Active”, the Activity (Plasmodium falciparum [41]) was “Active” and the Activity (Plasmodium falciparum [42]) was “Active”.

For `C=CCOc1ccc(C(=O)/C=C/c2cc(OC)c(OCC=C)c(-c3cc(/C=C/C(=O)c4ccc(OCC=C)cc4OCC=C)cc(OC)c3OCC=C)c2)c(OCC=C)c1`, the IC50 (Plasmodium falciparum [3]) was 63 µM.
